Test results from ChEMBL document CHEMBL5696442, “Discovery of type II inhibitors of TGFβ-activated kinase 1 (TAK1) and mitogen-activated protein kinase kinase kinase kinase 2 (MAP4K2)” (J Med Chem, 2015).
Calls of active or inactive are those of the source. The rule behind the calls is not given here.

Experiments:
[1] = target: MAP/microtubule affinity-regulating kinase 3 (Homo sapiens) (UniProt P27448); assay: Inhibition of MARK3 Lys2 labeling site in human Huh-7 cell lysate at 1 uM by KiNativ Profiling analysis relative to control; format: subcellular
Chain of MAP/microtubule affinity-regulating kinase 3 (Homo sapiens) (P27448 whole entry, looked up): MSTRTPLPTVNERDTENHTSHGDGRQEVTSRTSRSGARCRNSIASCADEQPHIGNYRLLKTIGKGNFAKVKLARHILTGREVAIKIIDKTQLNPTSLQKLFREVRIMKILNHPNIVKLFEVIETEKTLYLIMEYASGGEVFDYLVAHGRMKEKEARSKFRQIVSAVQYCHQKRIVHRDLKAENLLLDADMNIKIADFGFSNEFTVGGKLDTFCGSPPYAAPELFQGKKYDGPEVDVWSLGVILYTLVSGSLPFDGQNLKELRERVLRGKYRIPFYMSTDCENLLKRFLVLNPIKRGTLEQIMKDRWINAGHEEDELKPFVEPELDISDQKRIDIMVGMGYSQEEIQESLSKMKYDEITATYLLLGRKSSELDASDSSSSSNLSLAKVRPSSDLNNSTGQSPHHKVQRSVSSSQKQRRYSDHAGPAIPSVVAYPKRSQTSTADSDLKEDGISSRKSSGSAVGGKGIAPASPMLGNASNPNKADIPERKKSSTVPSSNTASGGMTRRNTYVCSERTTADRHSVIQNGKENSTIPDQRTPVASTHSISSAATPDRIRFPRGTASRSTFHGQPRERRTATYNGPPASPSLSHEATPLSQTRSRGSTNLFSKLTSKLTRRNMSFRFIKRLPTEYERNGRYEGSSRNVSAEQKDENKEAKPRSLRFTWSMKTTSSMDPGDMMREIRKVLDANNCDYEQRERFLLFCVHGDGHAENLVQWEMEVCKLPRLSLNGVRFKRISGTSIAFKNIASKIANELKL

[2] = target: Mitogen-activated protein kinase kinase kinase 4 (Homo sapiens) (UniProt Q9Y6R4); assay: Inhibition of MAP3K4 Lys2 labeling site in human Huh-7 cell lysate at 1 uM by KiNativ Profiling analysis relative to control; format: subcellular
Chain of Mitogen-activated protein kinase kinase kinase 4 (Homo sapiens) (Q9Y6R4 whole entry): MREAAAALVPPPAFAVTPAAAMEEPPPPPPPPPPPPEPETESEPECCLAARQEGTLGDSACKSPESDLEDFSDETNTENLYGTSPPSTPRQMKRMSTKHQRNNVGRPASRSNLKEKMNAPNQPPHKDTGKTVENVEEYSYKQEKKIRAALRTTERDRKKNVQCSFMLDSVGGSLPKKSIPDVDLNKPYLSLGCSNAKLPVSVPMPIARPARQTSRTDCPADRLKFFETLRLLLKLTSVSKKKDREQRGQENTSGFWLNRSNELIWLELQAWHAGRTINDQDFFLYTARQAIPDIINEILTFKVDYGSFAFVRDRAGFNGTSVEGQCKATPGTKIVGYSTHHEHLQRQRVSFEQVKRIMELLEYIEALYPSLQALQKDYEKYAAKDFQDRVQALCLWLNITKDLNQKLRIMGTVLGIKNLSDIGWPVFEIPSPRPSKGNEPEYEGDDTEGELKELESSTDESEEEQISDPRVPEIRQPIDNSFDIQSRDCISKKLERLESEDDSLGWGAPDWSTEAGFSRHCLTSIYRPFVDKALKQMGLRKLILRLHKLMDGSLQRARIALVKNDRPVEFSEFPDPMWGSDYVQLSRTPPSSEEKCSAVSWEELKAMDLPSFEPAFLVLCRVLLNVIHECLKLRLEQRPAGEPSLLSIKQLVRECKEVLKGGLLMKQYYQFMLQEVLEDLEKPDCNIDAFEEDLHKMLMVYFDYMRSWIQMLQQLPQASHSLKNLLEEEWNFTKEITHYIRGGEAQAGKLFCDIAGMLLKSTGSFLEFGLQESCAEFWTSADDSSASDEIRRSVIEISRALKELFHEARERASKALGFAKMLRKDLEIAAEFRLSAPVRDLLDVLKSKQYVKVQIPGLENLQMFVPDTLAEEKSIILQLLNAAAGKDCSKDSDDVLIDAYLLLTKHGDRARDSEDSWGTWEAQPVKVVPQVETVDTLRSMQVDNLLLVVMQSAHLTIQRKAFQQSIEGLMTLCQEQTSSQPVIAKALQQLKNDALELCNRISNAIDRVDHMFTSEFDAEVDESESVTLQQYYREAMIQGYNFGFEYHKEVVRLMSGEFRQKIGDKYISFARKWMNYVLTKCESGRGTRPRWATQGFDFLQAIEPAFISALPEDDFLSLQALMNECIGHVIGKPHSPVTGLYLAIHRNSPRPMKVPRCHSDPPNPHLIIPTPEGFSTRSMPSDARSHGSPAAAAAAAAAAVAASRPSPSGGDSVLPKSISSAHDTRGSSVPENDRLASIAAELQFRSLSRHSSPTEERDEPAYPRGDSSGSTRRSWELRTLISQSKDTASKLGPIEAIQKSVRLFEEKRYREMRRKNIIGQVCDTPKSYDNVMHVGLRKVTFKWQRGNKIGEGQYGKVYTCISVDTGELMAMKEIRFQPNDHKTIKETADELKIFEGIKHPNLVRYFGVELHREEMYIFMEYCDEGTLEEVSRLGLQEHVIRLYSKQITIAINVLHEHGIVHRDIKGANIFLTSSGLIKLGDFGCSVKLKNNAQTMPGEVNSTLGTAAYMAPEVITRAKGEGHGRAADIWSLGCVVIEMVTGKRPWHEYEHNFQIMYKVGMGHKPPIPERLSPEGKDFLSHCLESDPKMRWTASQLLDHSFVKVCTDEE

[3] = target: T1, Dual specificity mitogen-activated protein kinase kinase 6 (Homo sapiens) (UniProt P52564); assay: Inhibition of MEK6 (unknown origin) at 10 uM by Ambit Kinomescan binding assay
T1 sequence (whole entry): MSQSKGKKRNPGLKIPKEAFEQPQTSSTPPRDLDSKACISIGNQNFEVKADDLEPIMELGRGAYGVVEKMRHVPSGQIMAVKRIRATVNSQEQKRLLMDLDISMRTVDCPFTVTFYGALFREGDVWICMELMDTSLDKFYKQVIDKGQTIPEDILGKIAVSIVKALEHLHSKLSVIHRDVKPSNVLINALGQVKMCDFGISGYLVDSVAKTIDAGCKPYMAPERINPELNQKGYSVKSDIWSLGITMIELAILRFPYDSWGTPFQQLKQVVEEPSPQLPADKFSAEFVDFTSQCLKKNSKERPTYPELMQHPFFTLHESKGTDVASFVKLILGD

[4] = target: Cyclin-dependent kinase 14 (Homo sapiens) (UniProt O94921); assay: Inhibition of PFTAIRE1 Lys1 labeling site in human A-375 cells at 0.05 uM by KiNativ Profiling analysis relative to control
Chain of Cyclin-dependent kinase 14 (Homo sapiens) (O94921 whole entry, looked up): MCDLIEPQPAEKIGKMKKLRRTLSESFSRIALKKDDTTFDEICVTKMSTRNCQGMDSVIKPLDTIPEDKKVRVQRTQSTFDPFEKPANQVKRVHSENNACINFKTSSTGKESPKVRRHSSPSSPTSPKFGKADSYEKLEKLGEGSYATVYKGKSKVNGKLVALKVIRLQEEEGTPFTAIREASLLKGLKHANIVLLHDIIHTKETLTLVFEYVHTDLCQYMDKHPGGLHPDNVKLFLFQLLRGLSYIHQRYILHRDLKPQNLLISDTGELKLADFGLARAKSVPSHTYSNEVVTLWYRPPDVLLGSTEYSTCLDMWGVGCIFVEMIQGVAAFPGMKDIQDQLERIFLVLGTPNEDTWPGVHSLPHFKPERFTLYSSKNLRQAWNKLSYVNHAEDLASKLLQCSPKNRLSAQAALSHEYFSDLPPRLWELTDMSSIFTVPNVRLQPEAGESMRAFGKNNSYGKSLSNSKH

[5] = target: Maternal embryonic leucine zipper kinase (Homo sapiens) (UniProt Q14680); assay: Inhibition of MELK (unknown origin) at 10 uM by Ambit Kinomescan binding assay
Chain of Maternal embryonic leucine zipper kinase (Homo sapiens) (Q14680 whole entry, looked up): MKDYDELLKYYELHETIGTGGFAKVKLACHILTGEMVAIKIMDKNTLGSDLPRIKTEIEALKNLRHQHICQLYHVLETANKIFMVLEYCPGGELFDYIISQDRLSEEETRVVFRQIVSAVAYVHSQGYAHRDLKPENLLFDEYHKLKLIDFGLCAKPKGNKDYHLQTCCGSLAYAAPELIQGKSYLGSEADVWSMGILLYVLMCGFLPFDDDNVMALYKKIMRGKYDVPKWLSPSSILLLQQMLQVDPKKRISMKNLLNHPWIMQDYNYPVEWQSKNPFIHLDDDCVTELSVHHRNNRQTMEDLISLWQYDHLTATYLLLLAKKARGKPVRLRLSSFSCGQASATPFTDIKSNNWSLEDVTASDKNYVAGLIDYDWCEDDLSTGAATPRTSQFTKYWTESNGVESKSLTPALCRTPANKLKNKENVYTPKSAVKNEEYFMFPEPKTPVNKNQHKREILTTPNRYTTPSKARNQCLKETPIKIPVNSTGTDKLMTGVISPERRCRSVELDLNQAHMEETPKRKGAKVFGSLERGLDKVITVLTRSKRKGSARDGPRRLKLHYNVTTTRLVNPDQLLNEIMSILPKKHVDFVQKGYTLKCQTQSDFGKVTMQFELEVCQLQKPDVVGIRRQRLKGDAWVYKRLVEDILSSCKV

[6] = Inhibition of Wnk1/2/3 K2 labeling site in human Huh-7 cells at 10 uM by KiNativ Profiling analysis relative to control; details: condition cancer
[7] = target: Calcium/calmodulin-dependent protein kinase type IV (Homo sapiens) (UniProt Q16566); assay: Inhibition of CAMK4 (unknown origin) at 10 uM by Ambit Kinomescan binding assay
Chain of Calcium/calmodulin-dependent protein kinase type IV (Homo sapiens) (Q16566 whole entry): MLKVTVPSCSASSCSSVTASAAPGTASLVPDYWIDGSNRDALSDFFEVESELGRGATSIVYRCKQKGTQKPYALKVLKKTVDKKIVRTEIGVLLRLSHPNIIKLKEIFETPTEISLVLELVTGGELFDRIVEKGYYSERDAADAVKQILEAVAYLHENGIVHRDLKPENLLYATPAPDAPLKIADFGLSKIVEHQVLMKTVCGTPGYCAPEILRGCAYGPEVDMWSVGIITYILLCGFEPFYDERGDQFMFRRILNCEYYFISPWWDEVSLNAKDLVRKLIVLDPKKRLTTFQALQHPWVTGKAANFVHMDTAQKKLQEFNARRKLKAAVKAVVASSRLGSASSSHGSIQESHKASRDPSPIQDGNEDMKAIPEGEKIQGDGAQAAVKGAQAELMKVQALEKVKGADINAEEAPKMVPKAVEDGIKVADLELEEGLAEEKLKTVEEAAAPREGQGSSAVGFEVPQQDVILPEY

[8] = target: T2, Mitogen-activated protein kinase kinase kinase 2 (Homo sapiens) (UniProt Q9Y2U5); assay: Inhibition of MAP3K2 Lys2 labeling site in human A-375 cells at 0.5 uM by KiNativ Profiling analysis relative to control; format: cell-based
T2 sequence (whole entry): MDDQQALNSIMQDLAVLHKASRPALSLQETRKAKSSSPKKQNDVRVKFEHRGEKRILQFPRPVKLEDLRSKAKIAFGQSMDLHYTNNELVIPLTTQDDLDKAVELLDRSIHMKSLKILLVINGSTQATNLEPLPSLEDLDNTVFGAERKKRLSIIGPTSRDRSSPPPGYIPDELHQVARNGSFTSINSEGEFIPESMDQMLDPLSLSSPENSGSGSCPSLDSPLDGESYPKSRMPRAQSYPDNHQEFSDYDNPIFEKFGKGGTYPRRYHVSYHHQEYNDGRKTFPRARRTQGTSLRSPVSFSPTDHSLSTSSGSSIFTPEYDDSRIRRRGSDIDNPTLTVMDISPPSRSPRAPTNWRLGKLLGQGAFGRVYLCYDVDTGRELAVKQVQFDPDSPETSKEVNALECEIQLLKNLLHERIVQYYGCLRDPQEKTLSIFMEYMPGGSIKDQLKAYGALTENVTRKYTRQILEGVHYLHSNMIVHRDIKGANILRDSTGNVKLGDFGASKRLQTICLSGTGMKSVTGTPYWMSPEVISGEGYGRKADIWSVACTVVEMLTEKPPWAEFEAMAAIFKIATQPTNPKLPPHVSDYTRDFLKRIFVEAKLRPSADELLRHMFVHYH

[9] = target: T1, Dual specificity mitogen-activated protein kinase kinase 6 (Homo sapiens); assay: Inhibition of MAP2K6 Lys2 labeling site in human A-375 cells at 0.05 uM by KiNativ Profiling analysis relative to control; format: cell-based
[10] = target: Serine/threonine-protein kinase Chk2 (Homo sapiens) (UniProt O96017); assay: Inhibition of CHEK2 (unknown origin) at 1 uM by Ambit Kinomescan binding assay relative to control
Chain of Serine/threonine-protein kinase Chk2 (Homo sapiens) (O96017 whole entry): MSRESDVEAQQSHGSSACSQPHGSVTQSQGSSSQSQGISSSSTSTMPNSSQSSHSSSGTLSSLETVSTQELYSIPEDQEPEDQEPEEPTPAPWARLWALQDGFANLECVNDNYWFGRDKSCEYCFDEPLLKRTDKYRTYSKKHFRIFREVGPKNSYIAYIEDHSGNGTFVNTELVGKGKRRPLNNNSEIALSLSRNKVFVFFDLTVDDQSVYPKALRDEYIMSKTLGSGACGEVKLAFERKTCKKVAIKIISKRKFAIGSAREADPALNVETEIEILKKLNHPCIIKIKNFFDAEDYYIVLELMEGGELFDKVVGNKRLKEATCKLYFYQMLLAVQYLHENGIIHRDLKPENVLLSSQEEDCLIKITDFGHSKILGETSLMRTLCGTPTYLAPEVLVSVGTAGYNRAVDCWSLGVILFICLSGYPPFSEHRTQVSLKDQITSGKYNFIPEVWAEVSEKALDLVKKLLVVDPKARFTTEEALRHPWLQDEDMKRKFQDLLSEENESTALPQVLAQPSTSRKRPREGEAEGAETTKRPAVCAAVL

[11] = target: T3, Phosphatidylinositol 5-phosphate 4-kinase type-2 gamma (Homo sapiens) (UniProt Q8TBX8); assay: Inhibition of PIP4K2C ATP labeling site harbouring VKELPTLK in human A-375 cells at 5 uM by KiNativ Profiling analysis relative to control; format: cell-based
T3 sequence (whole entry): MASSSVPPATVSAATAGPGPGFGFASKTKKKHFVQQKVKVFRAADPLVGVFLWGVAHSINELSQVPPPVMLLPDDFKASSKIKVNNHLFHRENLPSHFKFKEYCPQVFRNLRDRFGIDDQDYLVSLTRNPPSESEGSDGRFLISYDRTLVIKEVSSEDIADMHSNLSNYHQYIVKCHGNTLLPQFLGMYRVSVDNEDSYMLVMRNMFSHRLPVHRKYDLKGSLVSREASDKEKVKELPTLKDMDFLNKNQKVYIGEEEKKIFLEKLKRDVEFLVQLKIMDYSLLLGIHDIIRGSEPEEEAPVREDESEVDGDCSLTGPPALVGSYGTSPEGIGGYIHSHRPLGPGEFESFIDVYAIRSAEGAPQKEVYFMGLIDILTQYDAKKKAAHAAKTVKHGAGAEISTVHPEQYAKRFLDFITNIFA

[12] = target: 5'-AMP-activated protein kinase catalytic subunit alpha-2 (Homo sapiens) (UniProt P54646); assay: Inhibition of AMPKa2 Lys2 labeling site in human A-375 cells at 5 uM by KiNativ Profiling analysis relative to control; format: cell-based
Chain of 5'-AMP-activated protein kinase catalytic subunit alpha-2 (Homo sapiens) (P54646 whole entry, looked up): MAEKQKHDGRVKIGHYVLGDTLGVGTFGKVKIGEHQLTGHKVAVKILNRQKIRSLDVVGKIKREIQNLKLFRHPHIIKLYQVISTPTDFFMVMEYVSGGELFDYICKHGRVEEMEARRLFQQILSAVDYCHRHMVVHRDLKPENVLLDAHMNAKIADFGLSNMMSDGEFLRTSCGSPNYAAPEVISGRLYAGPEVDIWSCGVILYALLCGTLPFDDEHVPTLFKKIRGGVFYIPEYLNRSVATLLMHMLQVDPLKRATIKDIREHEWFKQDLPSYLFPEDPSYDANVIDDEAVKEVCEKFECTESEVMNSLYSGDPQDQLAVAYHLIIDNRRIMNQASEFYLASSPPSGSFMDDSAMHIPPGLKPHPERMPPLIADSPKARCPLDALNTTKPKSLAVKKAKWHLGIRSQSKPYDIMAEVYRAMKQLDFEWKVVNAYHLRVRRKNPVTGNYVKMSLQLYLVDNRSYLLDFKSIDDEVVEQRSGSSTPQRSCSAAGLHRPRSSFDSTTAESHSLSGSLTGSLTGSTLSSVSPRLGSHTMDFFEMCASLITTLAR

[13] = target: Serine/threonine-protein kinase tousled-like 2 (Homo sapiens) (UniProt Q86UE8); assay: Inhibition of TLK2 (unknown origin) at 1 uM by Ambit Kinomescan binding assay relative to control
[14] = target: T4, Serine/threonine-protein kinase 3 (Homo sapiens) (UniProt Q13188); assay: Inhibition of MST2 (unknown origin) at 1 uM by Ambit Kinomescan binding assay relative to control
T4 sequence (whole entry): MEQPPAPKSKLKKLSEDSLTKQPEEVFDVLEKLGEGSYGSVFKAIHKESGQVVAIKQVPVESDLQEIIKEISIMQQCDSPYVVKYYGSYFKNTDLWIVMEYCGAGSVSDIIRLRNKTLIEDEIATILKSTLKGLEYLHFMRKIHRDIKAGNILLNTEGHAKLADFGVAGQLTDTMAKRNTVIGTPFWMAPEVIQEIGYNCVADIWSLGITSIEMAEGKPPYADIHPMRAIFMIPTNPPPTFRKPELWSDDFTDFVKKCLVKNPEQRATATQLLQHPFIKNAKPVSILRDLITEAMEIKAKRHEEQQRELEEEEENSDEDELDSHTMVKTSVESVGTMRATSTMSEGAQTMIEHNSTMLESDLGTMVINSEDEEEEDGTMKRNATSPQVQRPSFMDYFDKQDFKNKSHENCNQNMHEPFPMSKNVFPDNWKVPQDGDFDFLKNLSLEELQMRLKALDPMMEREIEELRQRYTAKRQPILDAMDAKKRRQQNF

With `CNc1cc(Oc2cc(C(=O)Nc3cc(N4CCN(C)CC4)cc(C(F)(F)F)c3)ccc2C)ncn1` the inhibition [1] was -4.1% and the inhibition [2] was 0.5%.
For `CCN1CCN(Cc2ccc(NC(=O)c3ccc(C)c(Oc4ccnc5[nH]ccc45)c3)cc2C(F)(F)F)CC1`, the inhibition [3] was “inactive”, the inhibition [4] was 8.3% and the inhibition [5] was “inactive”. For the same compound, the inhibition at 10 µM [6] was 7.8%, the inhibition [7] was “inactive” and the inhibition [8] was 2.8%. It also gave an inhibition [9] of -8.5%.
`CCN1CCN(Cc2ccc(NC(=O)c3ccc(C)c(/C=C/c4cnc5[nH]ccc5c4OC)c3)cc2C(F)(F)F)CC1` showed an inhibition [10] of 82%, an inhibition [11] of -6% and an inhibition [12] of 18.5%. The inhibition [13] was 100% and the inhibition [14] was 100%.
